Measured values reported in patent publication US11174264B2, “TYK2 inhibitors and uses thereof” (Nimbus Lakshmi, Inc., priority 2019, dated 2021).

What was measured:
[1] = biological target: human TYK2 (JH2domain-pseudokinase) (Homo sapiens (Human), UniProt P29597); experiment: TYK2 JH2 Domain Binding Assay (KINOMEscan); details: read-out: hTYK2_JH2_Binding (Kd)
Experimental: Binding constants for compounds of the present invention against the JH2 domain were determined by the following protocol for a KINOMEscan® assay (DiscoveRx). A fusion protein of a partial length construct of human TYK2 (JH2domain-pseudokinase) (amino acids G556 to D888 based on reference sequence NP_003322.3) and the DNA binding domain of NFkB was expressed in transiently transfected HEK293 cells. From these HEK 293 cells, extracts were prepared in M-PER extraction buffer (Pierce) in the presence of Protease Inhibitor Cocktail Complete (Roche) and Phosphatase Inhibitor Cocktail Set II (Merck) per manufacturers' instructions. The TYK2 (JH2domain-pseudokinase) fusion protein was labeled with a chimeric double-stranded DNA tag containing the NFkB binding site (5′-[…]-3′) fused to an amplicon for qPCR readout, which was added directly to the expression extract (the final concentration of DNA-tag in the binding reaction is 0.1 nM).
The liganded beads were blocked with excess biotin and washed with blocking buffer (SeaBlock (Pierce), 1% BSA, 0.05% Tween 20, 1 mM DTT) to remove unbound ligand and to reduce nonspecific binding.
Extracts were used directly in binding assays without any enzyme purification steps at a ≥10,000-fold overall stock dilution (final DNA-tagged enzyme concentration <0.1 nM). Extracts were loaded with DNA-tag and diluted into the binding reaction in a two step process. First extracts were diluted 1:100 in 1× binding buffer (PBS/0.05% Tween 20/10 mM DTT/0.1% BSA/2 μg/ml sonicated salmon sperm DNA) containing 10 nM DNA-tag. This dilution was allowed to equilibrate at room temperature for 15 minutes and then subsequently diluted 1:100 in 1× binding buffer. […] Kds were determined using an 11-point 3-fold compound dilution series with three DMSO control points. […] The compounds were then diluted directly into the assays such that the final concentration of DMSO was 0.9%. All reactions performed in polypropylene 384-well plates. Each was a final volume of 0.02 mL. Assays were incubated with shaking for 1 hour at room temperature. Then the beads were pelleted and washed with wash buffer (1×PBS, 0.05% Tween 20) to remove displaced kinase and test compound. […] The qPCR protocol consisted of a 10 minute hot start at 95° C., followed by 35 cycles of 95° C. for 15 seconds, 60° C. for 1 minute.
The compounds were then diluted directly into the assays such that the final concentration of DMSO was 0.9%. […] Kd measurements were performed in duplicate.
Binding constants (Kd values) were calculated with a standard dose-response curve using the Hill equation: […]
The Hill Slope was set to −1.

JAK3 kinase domain = JAK3 kinase domain (Homo sapiens (Human), UniProt P52333); experiment: JAK3 Radioactive Kinase Assay; format: biochemical; details: 10 μM compound; for inhibition at 10 µM: read-out: JAK3_IC50_RB (% INH_@_10 uM) at 10.0 uM [% INH]
From the text: (§1) Similar assays were run to measure the percent inhibition at the JAK1 and JAK3 kinase domains.

[2] = system: IL-12 induced STAT4 phophorylation mediated by Tyk2/JAK2 (heterodimeric complex); experiment: IL-12 Induced pSTAT4 in Human PBMC; format: cell-based; details: for IC50: 1.7 ng/mL IL-12, read-out: PBMC_IL-12-pSTAT4 (IC50); for inhibition at 0.05 µM: Homo sapiens, PBMC, 1.7 ng/mL IL-12, read-out: PBMC_IL-12-pSTAT4 (% Inhibition_Average_@0.05 uM) [%]
Experimental: Human PBMC are isolated from buffy coat and are stored frozen for assays as needed. […] 15 μl of compound or DMSO is added to the well at the desired concentrations and incubated at 1 hr at 37° C. 15 μl of stimulus (final concentration of 1.7 ng/mL IL-12) is added for 30 minutes prior to pSTAT4 and total STAT4 analysis using cell lysates prepared and analyzed by MSD reagents as per manufacturer protocol. The final DMSO concentration of compound in the assay is 0.1%.
The IL-12 Induced pSTAT4 assay evaluates the inhibition of IL-12 induced STAT4 phophorylation mediated by Tyk2/JAK2 (heterodimeric complex).

JAK2 kinase domain (JH1) = JAK2 kinase domain (JH1) (Homo sapiens (Human), UniProt O60674); experiment: JAK2 Radioactive Kinase Assay; format: biochemical; details: 10 μM compound, ATP at 10 μM; for inhibition at 10 µM: read-out: JAK2_IC50_RB (% INH_@_10 uM) at 10.0 uM [% INH]
Experimental: (§2) The Tyk2 and JAK2 radioactive kinase assay measures the percent inhibition at the Tyk2 kinase domain (JH1) and the percent inhibition at the JAK2 kinase domain (JH1). Results of the assay are expressed as percent inhibition at 10 μM.

JAK1 kinase domain = JAK1 kinase domain (Homo sapiens (Human), UniProt P23458); experiment: JAK1 Radioactive Kinase Assay; format: biochemical; details: 10 μM compound; for inhibition at 10 µM: read-out: JAK1_IC50_RB (% INH_@_10 uM) at 10.0 uM [% INH]
From the text: as §1

Tyk2 kinase domain (JH1) = Tyk2 kinase domain (JH1) (Homo sapiens (Human), UniProt P29597); experiment: Tyk2 Radioactive Kinase Assay; format: biochemical; details: 10 μM compound, ATP at 10 μM; read-out: TYK2_IC50_RB (% INH_@_10 uM) at 10.0 uM [% INH]
Experimental: as §2

JAK1 kinase domain, sequence (P23458 875-1153): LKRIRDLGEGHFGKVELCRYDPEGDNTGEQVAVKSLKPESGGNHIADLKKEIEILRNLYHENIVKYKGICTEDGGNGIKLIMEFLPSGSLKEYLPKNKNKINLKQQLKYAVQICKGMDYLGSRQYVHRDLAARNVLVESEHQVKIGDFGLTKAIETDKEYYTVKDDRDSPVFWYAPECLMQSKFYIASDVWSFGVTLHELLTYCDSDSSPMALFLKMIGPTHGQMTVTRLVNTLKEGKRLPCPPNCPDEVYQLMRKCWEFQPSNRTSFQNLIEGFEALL
JAK2 kinase domain (JH1), sequence (O60674 849-1124): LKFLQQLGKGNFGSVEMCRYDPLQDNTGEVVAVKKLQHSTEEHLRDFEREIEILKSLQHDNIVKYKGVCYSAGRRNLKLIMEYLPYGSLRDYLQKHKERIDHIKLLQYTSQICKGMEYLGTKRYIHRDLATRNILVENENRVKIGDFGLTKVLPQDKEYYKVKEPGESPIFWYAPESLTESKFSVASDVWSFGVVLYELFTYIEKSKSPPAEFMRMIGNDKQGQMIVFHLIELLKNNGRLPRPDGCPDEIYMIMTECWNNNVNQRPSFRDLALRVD
JAK3 kinase domain, sequence (P52333 822-1111): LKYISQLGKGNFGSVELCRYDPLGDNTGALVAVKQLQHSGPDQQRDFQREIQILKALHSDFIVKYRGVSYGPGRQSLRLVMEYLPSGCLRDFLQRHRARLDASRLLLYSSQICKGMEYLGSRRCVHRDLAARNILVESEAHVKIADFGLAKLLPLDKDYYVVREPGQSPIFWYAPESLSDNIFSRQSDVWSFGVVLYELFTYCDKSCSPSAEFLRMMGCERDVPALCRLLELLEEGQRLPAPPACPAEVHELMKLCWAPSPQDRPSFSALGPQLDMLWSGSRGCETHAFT
human TYK2 (JH2domain-pseudokinase), sequence (P29597 556-888): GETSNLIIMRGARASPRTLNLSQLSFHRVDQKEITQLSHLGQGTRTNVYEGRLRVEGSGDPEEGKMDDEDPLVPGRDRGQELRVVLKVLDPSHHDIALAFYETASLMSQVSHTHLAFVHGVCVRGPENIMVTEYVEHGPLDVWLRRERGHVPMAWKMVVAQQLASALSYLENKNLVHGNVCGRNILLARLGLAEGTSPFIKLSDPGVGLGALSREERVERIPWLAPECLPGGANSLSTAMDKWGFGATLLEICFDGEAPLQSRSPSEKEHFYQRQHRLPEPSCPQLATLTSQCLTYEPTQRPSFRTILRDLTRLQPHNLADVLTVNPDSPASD
Tyk2 kinase domain (JH1), sequence (P29597 897-1176): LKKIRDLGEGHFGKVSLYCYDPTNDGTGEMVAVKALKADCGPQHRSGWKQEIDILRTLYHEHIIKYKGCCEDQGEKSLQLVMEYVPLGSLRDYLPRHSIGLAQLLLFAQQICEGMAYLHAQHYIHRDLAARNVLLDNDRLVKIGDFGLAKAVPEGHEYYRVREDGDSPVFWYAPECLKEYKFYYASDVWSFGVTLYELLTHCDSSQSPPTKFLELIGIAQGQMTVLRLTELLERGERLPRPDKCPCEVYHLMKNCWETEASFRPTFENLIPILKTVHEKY

Kd [1] | IC50 [2] | SMILES | inhibition at 0.05 µM ([2]; 0.05 μM compound) | other results
< 0.2 nM | < 100 nM | CNc1cc(-c2cn(C(C)C)c3ncccc23)nn2c(C(=O)N[C@H]3CC[C@H]3O)cnc12 (racemic) [Compound I-15, N-(2-hydroxycyclobutyl)-6-(1-isopropyl-1H-pyrrolo[2,3-b]pyridin-3-yl)-8-(methylamino)imidazo[1,2-b]pyridazine-3-carboxamide] |  | JAK3_IC50_RB (% INH_@_10 uM) at 10.0 uM [% INH] (JAK3 kinase domain): A (had a percent inhibition at 10 μM lower than 50); PBMC_IL-12-pSTAT4 (% Inhibition_Average_@0.05 uM) [%] ([2]; 0.05 μM compound, 1.7 ng/mL IL-12): ** (had a percent inhibition at 0.05 μM between 50 and 70); JAK2_IC50_RB (% INH_@_10 uM) at 10.0 uM [% INH] (JAK2 kinase domain (JH1)): A (had a percent inhibition at 10 μM lower than 50); JAK1_IC50_RB (% INH_@_10 uM) at 10.0 uM [% INH] (JAK1 kinase domain): A (had a percent inhibition at 10 μM lower than 50)
< 0.2 nM | < 100 nM | CNc1cc(Nc2cccn([C@H]3CC[C@H](OC)CC3)c2=O)nn2c(C(=O)N[C@H]3CC[C@@H]3OC)cnc12 (racemic) [Compound I-21, N-(2-methoxycyclobutyl)-6-((1-((1r,4S)-4-methoxycyclohexyl)-2-oxo-1,2-dihydropyridin-3-yl)amino)-8-(methylamino)imidazo[1,2-b]pyridazine-3-carboxamide] | > 90% | 
< 0.2 nM | < 100 nM | CNc1cc(Nc2cccn([C@H]3[C@@H]4COC[C@@H]43)c2=O)nn2c(C(=O)N[C@H]3CC[C@@H]3OC)cnc12 (racemic) [Compound I-22, 6-((1-((1R,5S,6r)-3-oxabicyclo[3.1.0]hexan-6-yl)-2-oxo-1,2-dihydropyridin-3-yl)amino)-N-(2-methoxycyclobutyl)-8-(methylamino)imidazo[1,2-b]pyridazine-3-carboxamide] | 70 to 90% | 
< 0.2 nM | < 100 nM | CNc1cc(Nc2cccn([C@H]3C[C@H](OC)C3)c2=O)nn2c(C(=O)N[C@H]3CC[C@@H]3OC)cnc12 (racemic) [Compound I-23, N-((1S,2S)-2-methoxycyclobutyl)-6-((1-((1r,3S)-3-methoxycyclobutyl)-2-oxo-1,2-dihydropyridin-3-yl)amino)-8-(methylamino)imidazo[1,2-b]pyridazine-3-carboxamide] | 70 to 90% | 
< 0.2 nM | < 100 nM | CNc1cc(Nc2cccn(-c3ncccc3F)c2=O)nn2c(C(=O)N[C@H]3CC[C@@H]3OC)cnc12 (stereo in doubt) [Compound I-17, 6-((3′-fluoro-2-oxo-2H-[1,2′-bipyridin]-3-yl)amino)-N-(2-methoxycyclobutyl)-8-(methylamino)imidazo[1,2-b]pyridazine-3-carboxamide] | 50 to 70% | 
< 0.2 nM | < 100 nM | CNc1cc(Nc2cccn(-c3ccccn3)c2=O)nn2c(C(=O)N[C@H]3CC[C@@H]3OC)cnc12 (stereo in doubt) [Compound I-18, N-(2-methoxycyclobutyl)-8-(methylamino)-6-((2-oxo-2H-[1,2′-bipyridin]-3-yl)amino)imidazo[1,2-b]pyridazine-3-carboxamide] | 70 to 90% | 
< 0.2 nM | < 100 nM | CNc1cc(Nc2cccn(-c3ccc(C)nc3)c2=O)nn2c(C(=O)N[C@H]3CC[C@@H]3OC)cnc12 (stereo in doubt) [Compound I-19, N-(2-methoxycyclobutyl)-6-((6′-methyl-2-oxo-2H-[1,3′-bipyridin]-3-yl)amino)-8-(methylamino)imidazo[1,2-b]pyridazine-3-carboxamide] | 50 to 70% | 
< 0.2 nM | < 100 nM | CNc1cc(Nc2cccn(C3CCOCC3)c2=O)nn2c(C(=O)N[C@H]3CC[C@@H]3OC)cnc12 (stereo in doubt) [Compound I-20, N-(2-methoxycyclobutyl)-8-(methylamino)-6-((2-oxo-1-(tetrahydro-2H-pyran-4-yl)-1,2-dihydropyridin-3-yl)amino)imidazo[1,2-b]pyridazine-3-carboxamide] | 70 to 90% | 
< 0.2 nM |  | CNc1cc(-c2cn(C(C)C)c3ncccc23)nn2c(C(=O)N[C@@H]3CC[C@@H]3O)cnc12 [Compound I-7, N-((1R,2S)-2-hydroxycyclobutyl)-6-(1-isopropyl-1H-pyrrolo[2,3-b]pyridin-3-yl)-8-(methylamino)imidazo[1,2-b]pyridazine-3-carboxamide] |  | inhibition at 10 µM (JAK3 kinase domain): < 50%; inhibition at 10 µM (JAK2 kinase domain (JH1)): < 50%; inhibition at 10 µM (Tyk2 kinase domain (JH1)): < 50%; inhibition at 10 µM (JAK1 kinase domain): < 50%
< 0.2 nM |  | CNc1cc(-c2cn(C3CCOCC3)c3ncccc23)nn2c(C(=O)N[C@@H]3CC[C@@H]3O)cnc12 [Compound I-8, N-((1R,2S)-2-hydroxycyclobutyl)-8-(methylamino)-6-(1-(tetrahydro-2H-pyran-4-yl)-1H-pyrrolo[2,3-b]pyridin-3-yl)imidazo[1,2-b]pyridazine-3-carboxamide] |  | 
0.2 to 1 nM |  | CNc1cc(-c2cn(CCN3CCOCC3)c3ncccc23)nn2c(C(=O)N[C@@H]3CC[C@@H]3O)cnc12 [Compound I-9, N-((1R,2S)-2-hydroxycyclobutyl)-8-(methylamino)-6-(1-(2-morpholinoethyl)-1H-pyrrol[2,3-b]pyridin-3-yl)imidazo[1,2-b]pyridazine-3-carboxamide] |  | inhibition at 10 µM (JAK3 kinase domain): < 50%; inhibition at 10 µM (JAK2 kinase domain (JH1)): < 50%; inhibition at 10 µM (JAK1 kinase domain): < 50%
< 0.2 nM |  | CNc1cc(-c2cn(C3CCOCC3)c3ncccc23)nn2c(C(=O)N[C@H]3CC[C@H]3O)cnc12 [Compound I-11, N-((1S,2R)-2-hydroxycyclobutyl)-8-(methylamino)-6-(1-(tetrahydro-2H-pyran-4-yl)-1H-pyrrolo[2,3-b]pyridin-3-yl)imidazo[1,2-b]pyridazine-3-carboxamide] | 70 to 90% | 
0.2 to 1 nM |  | CNc1cc(-c2cn(C(C)C)c3ncccc23)nn2c(C(=O)N[C@@H]3COC[C@@H]3O)cnc12 [Compound I-13, N-((3R,4R)-4-hydroxytetrahydrofuran-3-yl)-6-(1-isopropyl-1H-pyrrolo[2,3-b]pyridin-3-yl)-8-(methylamino)imidazo[1,2-b]pyridazine-3-carboxamide] |  | 
< 0.2 nM |  | CNc1cc(-c2cn(C(C)C)c3ncccc23)nn2c(C(=O)N[C@H]3COC[C@H]3O)cnc12 [Compound I-14, N-((3S,4S)-4-hydroxytetrahydrofuran-3-yl)-6-(1-isopropyl-1H-pyrrolo[2,3-b]pyridin-3-yl)-8-(methylamino)imidazo[1,2-b]pyridazine-3-carboxamide] | 70 to 90% | 
